This experiment deals with T1, Human Polθ polymerase domain (aa1820-2590) (Homo sapiens, UniProt O75417).
T1 construct: Human Polθ polymerase domain (aa1820-2590) was expressed in E. coli; made in house; host or cells: E. coli
T1 sequence (O75417 1820-2590): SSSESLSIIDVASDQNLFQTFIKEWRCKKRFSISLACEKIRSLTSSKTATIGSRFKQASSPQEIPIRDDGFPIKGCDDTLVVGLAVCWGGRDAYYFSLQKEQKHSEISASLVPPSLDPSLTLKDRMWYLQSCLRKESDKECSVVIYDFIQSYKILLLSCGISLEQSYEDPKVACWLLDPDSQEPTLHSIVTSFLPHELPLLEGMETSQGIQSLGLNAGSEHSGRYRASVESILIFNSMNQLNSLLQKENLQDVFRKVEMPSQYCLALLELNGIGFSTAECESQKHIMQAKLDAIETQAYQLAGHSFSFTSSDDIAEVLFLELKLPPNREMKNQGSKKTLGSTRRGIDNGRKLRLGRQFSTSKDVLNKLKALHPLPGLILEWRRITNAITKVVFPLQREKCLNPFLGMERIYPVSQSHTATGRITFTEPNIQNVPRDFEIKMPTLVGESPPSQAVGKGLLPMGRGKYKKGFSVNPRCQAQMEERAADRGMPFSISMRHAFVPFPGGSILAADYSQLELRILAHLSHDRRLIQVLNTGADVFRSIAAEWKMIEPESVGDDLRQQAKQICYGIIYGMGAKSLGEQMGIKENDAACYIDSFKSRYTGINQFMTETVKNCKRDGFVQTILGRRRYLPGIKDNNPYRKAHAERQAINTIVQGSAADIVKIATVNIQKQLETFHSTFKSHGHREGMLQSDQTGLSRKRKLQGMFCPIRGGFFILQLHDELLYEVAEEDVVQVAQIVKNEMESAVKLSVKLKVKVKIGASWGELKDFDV
Nature of the experiment: Polθ Polymerase Domain Kinact/KI Assay (PicoGreen). Format: biochemical. Conditions: 0.8 nM Polθ, 100 nM DNA substrate, kobs vs [I] fit for 2-step covalent inhibitor. The gist of the method: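 Time-dependent inhibition was followed with 0.8 nM polymerase domain, 100 nM DNA substrate and […], reactions quenched over 60 min and quantified by PicoGreen. Kinact and KI came from a secondary plot of kobs against inhibitor concentration.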

This note sets out measurements from US20250230165A1, “HETEROCYCLIC COMPOUNDS FOR USE IN THE TREATMENT OF CANCER” (ARTIOS PHARMA LIMITED, priority 2021, published 2025).

Turning to `Cc1cc(C(F)(F)F)cc(N2C(=O)C[C@@H]3CN(Cc4ccc(NC(=O)/C=C/CN(C)C)cc4F)c4c(Cl)cccc4N(C)C(=O)[C@H]32)n1` [Example 246, (E)-N-(4-(((3aR,11aS)-6-chloro-10-methyl-1-(6-methyl-4-(trifluoromethyl)pyridin-2-yl)-2,11-dioxo-1,2,3,3a,4,10,11,11a-octahydro-5H-benzo[b]pyrrolo[2,3-f][1,4]diazocin-5-yl)methyl)-3-fluorophenyl)-4-(dimethylamino)but-2-enamide], the Kinact/Kl is 420000 M⁻¹ s⁻¹.

`C/C=C(\CN(C)C)C(=O)Nc1ccc(CN2C[C@H]3CC(=O)N(c4cc(C(F)(F)F)cc(C)n4)[C@@H]3C(=O)N(C)c3cccc(C)c32)cc1` [Example 89, (E)-N-(4-(((3aR,11aS)-6,10-dimethyl-1-(6-methyl-4-(trifluoromethyl)pyridin-2-yl)-2,11-dioxo-1,2,3,3a,4,10,11,11a-octahydro-5H-benzo[b]pyrrolo[2,3-f][1,4]diazocin-5-yl)methyl)phenyl)-2-((dimethylamino)methyl)but-2-enamide] showed a Kinact/Kl of 2.4e+06 M⁻¹ s⁻¹.

Molecule `C=CC(=O)N1CC2(CN(CCN3C[C@H]4CC(=O)N(c5cc(C(F)(F)F)cc(C)n5)[C@@H]4C(=O)N(C)c4cccc(Cl)c43)CC2C#N)C1` (single isomer, unassigned) [Example 117a] registered a Kinact/Kl of 1.89e+06 M⁻¹ s⁻¹.

`Cc1cc(C(F)(F)F)cc(N2C(=O)C[C@@H]3CN(Cc4cn5c(n4)CN(C(=O)/C=C/C(F)(F)F)CC5)c4c(Cl)cccc4N(C)C(=O)[C@H]32)n1` [Example 307, (3aR,11aS)-6-chloro-10-methyl-1-(6-methyl-4-(trifluoromethyl)pyridin-2-yl)-5-((7-((E)-4,4,4-trifluorobut-2-enoyl)-5,6,7,8-tetrahydroimidazo[1,2-a]pyrazin-2-yl)methyl)-1,3a,4,5,10,11a-hexahydro-2H-benzo[b]pyrrolo[2,3-f][1,4]diazocine-2,11(3H)-dione] showed a Kinact/Kl of 1.35e+06 M⁻¹ s⁻¹.

For the molecule `C=CC(=O)N1Cc2ncc(CN3C[C@H]4CC(=O)N(c5cc(C(F)(F)F)cc(C)n5)[C@@H]4C(=O)N(C)c4cccc(C)c43)nc2C1` [Example 228, (3aR,11aS)-5-((6-acryloyl-6,7-dihydro-5H-pyrrolo[3,4-b]pyrazin-2-yl)methyl)-6,10-dimethyl-1-(6-methyl-4-(trifluoromethyl)pyridin-2-yl)-1,3a,4,5,10,11a-hexahydro-2H-benzo[b]pyrrolo[2,3-f][1,4]diazocine-2,11(3H)-dione], the Kinact/Kl amounted to 2.26e+06 M⁻¹ s⁻¹.

As to `C=CC(=O)N1CC2(CN(CCN3C[C@H]4CC(=O)N(c5cc(C(F)(F)F)cc(C)n5)[C@@H]4C(=O)N(C)c4cccc(F)c43)C[C@@H](C)N2)C1` [Example 31, (3aR,11aS)-5-(2-((R)-2-acryloyl-6-methyl-2,5,8-triazaspiro[3.5]nonan-8-yl)ethyl)-6-fluoro-10-methyl-1-(6-methyl-4-(trifluoromethyl)pyridin-2-yl)-1,3a,4,5,10, 11a-hexahydro-2H-benzo [b]pyrrolo[2,3-f][1,4] diazocine-2,11(3H)-dione], the Kinact/Kl stood at 1.13e+06 M⁻¹ s⁻¹.

`C=C(CN(C)C)C(=O)N1CC(CCC(F)CN2C[C@H]3CC(=O)N(c4cc(C(F)(F)F)cc(C)n4)[C@@H]3C(=O)N(C)c3cccc(Cl)c32)C1` (stereo partly drawn) [Example 302, (3aR,11aS)-6-chloro-5-(4-(1-(2-((dimethylamino)methyl)acryloyl)azetidin-3-yl)-2-fluorobutyl)-10-methyl-1-(6-methyl-4-(trifluoromethyl)pyridin-2-yl)-1,3a,4,5,10,11a-hexahydro-2H-benzo[b]pyrrolo[2,3-f][1,4]diazocine-2,11(3H)-dione] registered a Kinact/Kl of 3.04e+06 M⁻¹ s⁻¹.

In the case of `Cc1cc(C(F)(F)F)cc(N2C(=O)C[C@@H]3CN(C[C@H]4C[C@@H](NC(=O)/C=C/CN(C)C)C4)c4c(C)cccc4N(C)C(=O)[C@H]32)n1` [Example 332, (E)-N-((1S,3s)-3-(((3aR,11aS)-6,10-dimethyl-1-(6-methyl-4-(trifluoromethyl)-pyridin-2-yl)-2,11-dioxo-1,2,3,3a,4,10, 11,11a-octahydro-5H-benzo[b]pyrrolo [2,3-f][1,4]diazocin-5-yl)methyl)cyclo-butyl)-4-(dimethyl-amino)but-2-enamide], the Kinact/Kl was 1.3e+06 M⁻¹ s⁻¹.

Take `C=CC(=O)N1CC(N2CCCN(CCN3C[C@H]4CC(=O)N(c5cc(C(F)(F)F)cc(C)n5)[C@@H]4C(=O)N(C)c4cccc(F)c43)CC2)C1` [Example 3, (3aR,11aS)-5-(2-(4-(1-Acryloylazetidin-3-yl)-1,4-diazepan-1-yl)ethyl)-6-fluoro-10-methyl-1-(6-methyl-4-(trifluoromethyl)pyridin-2-yl)-1,3a,4,5,10,11a-hexahydro-2H-benzo[b]pyrrolo[2,3-f][1,4]diazocine-2,11(3H)-dione]: the Kinact/Kl is 540000 M⁻¹ s⁻¹.

The molecule `Cc1cc(C(F)(F)F)cc(N2C(=O)C[C@@H]3CN(CCCC(F)(F)CNC(=O)/C=C/CN(C)C)c4c(Cl)cccc4N(C)C(=O)[C@H]32)n1` [Example 296, (E)-N-(5-((3aR,11aS)-6-chloro-10-methyl-1-(6-methyl-4-(trifluoromethyl)pyridin-2-yl)-2,11-dioxo-1,2,3,3a,4,10,11,11a-octahydro-5H-benzo[b]pyrrolo[2,3-f][1,4]diazocin-5-yl)-2,2-difluoropentyl)-4-(dimethylamino)but-2-enamide] returned a Kinact/Kl of 3e+06 M⁻¹ s⁻¹.

Molecule `C=CC(=O)N1CCC[C@H]1c1noc(CN2C[C@H]3CC(=O)N(c4cc(C(F)(F)F)cc(C)n4)[C@@H]3C(=O)N(C)c3cccc(C)c32)n1` [Example 269, (3aR,11aS)-5-((3-((S)-1-acryloylpyrrolidin-2-yl)-1,2,4-oxadiazol-5-yl)methyl)-6,10-dimethyl-1-(6-methyl-4-(trifluoromethyl)pyridin-2-yl)-1,3a,4,5,10,11a-hexahydro-2H-benzo[b]pyrrolo[2,3-f][1,4]diazocine-2,11(3H)-dione] gave a Kinact/Kl of 970000 M⁻¹ s⁻¹.

In turn, `C=CC(=O)N1Cc2ccc(CN3C[C@H]4CC(=O)N(c5cc(C(F)(F)F)cc(C)n5)[C@@H]4C(=O)N(C)c4cccc(C)c43)nc2[C@@H]1CC#N` (racemic) [Example 318b, 2-((S/R)-6-acryloyl-2-(((3aR,11aS)-6,10-dimethyl-1-(6-meth-yl-4-(trifluorometh-yl)pyridin-2-yl)-2,11-dioxo-1,2,3,3a, 4,10,11,11a-octa-hydro-5H-benzo[b]pyrrolo[2,3-f][1,4]diazocin-5-yl)meth-yl)-6,7-dihydro-5H-pyrrolo[3,4-b]pyr-idin-7-yl)acetonitrile] came in with a Kinact/Kl of 1.56e+06 M⁻¹ s⁻¹.

Molecule `C=CC(=O)N1CC(N2CCN(CCN3C[C@H]4CC(=O)N(c5cc(C(F)(F)F)cc(C)n5)[C@@H]4C(=O)N(C)c4c(F)c(F)cc(Cl)c43)CC2)C1` [Example 20, (3aR,11aS)-5-(2-(4-(1-acryloylazetidin-3-yl)piperazin-1-yl)ethyl)-6-chloro-8,9-difluoro-10-methyl-1-(6-methyl-4-(trifluoromethyl)pyridin-2-yl)-1,3a,4,5,10,11a-hexahydro-2H-benzo[b]pyrrolo[2,3-f][1,4]diazocine-2,11(3H)-dione] returned a Kinact/Kl of 1.12e+06 M⁻¹ s⁻¹.

As to `C=CC(=O)N1CC(N2CCN(CCN3C[C@H]4CC(=O)N(c5cc(C(F)(F)F)cc(C)n5)[C@@H]4C(=O)N(C)c4cccc(C)c43)CC2)C1` [Example 115, (3aR,11aS)-5-(2-(4-(1-acryloylazetidin-3-yl)piperazin-1-yl)ethyl)-6,10-dimethyl-1-(6-methyl-4-(trifluoromethyl)pyridin-2-yl)-1,3a,4,5,10,11a-hexahydro-2H-benzo[b]pyrrolo[2,3-f][1,4]diazocine-2,11(3H)-dione], the Kinact/Kl turned out to be 2.35e+06 M⁻¹ s⁻¹.

For the molecule `C=CC(=O)N1CC(c2noc(CN3C[C@H]4CC(=O)N(c5cc(C(F)(F)F)cc(C)n5)[C@@H]4C(=O)N(C)c4cccc(F)c43)n2)C1` [Example 102, (3aR,11aS)-5-((3-(1-acryloylazetidin-3-yl)-1,2,4-oxadiazol-5-yl)methyl)-6-fluoro-10-methyl-1-(6-methyl-4-(trifluoromethyl)pyridin-2-yl)-1,3a,4,5,10,11a-hexahydro-2H-benzo[b]pyrrolo[2,3-f][1,4]diazocine-2,11(3H)-dione], the Kinact/Kl was determined as 1.16e+06 M⁻¹ s⁻¹.

In the case of `C=CC(=O)N1CC2CCC(C1)N2CCN1C[C@H]2CC(=O)N(c3cc(C(F)(F)F)cc(C)n3)[C@@H]2C(=O)N(C)c2cccc(C)c21` [Example 262, (3aR,11aS)-5-(2-(3-acryloyl-3,8-diazabicyclo[3.2.1]octan-8-yl)ethyl)-6,10-dimethyl-1-(6-methyl-4-(trifluoromethyl)pyridin-2-yl)-1,3a,4,5,10,11a-hexahydro-2H-benzo[b]pyrrolo[2,3-f][1,4]diazocine-2,11(3H)-dione], the Kinact/Kl is 710000 M⁻¹ s⁻¹.
